For data set [1], the system named is Trypanosoma brucei rhodesiense. Kind of data set: Antiparasitic activity against bloodstream forms of Trypanosoma brucei rhodesiense STIB 900 assessed as growth inhibition after 72 hrs by resazurin assay. The class given is functional, organism-based. The conditions noted are these: STIB 900, 72 h. A general note: Resazurin is reduced to fluorescent resorufin, in cell work by metabolically active cells.

The subject of a further data set is Plasmodium falciparum. Kind of data set: Antiplasmodial activity against chloroquine and pyrimethamine resistant Plasmodium falciparum K1 infected in human erythrocytes after 48 hrs by [3H]hypoxanthine incorporation assay. The class given is functional, organism-based.
In the next data set the test system is L6. In words: Cytotoxicity against rat L6 cells by alamar blue assay. Format: cell-based.
Data set [2] in a line: Selectivity index, ratio of IC50 for rat L6 cells to IC50 for bloodstream forms of Trypanosoma brucei rhodesiense STIB 900. The class given is toxicity, cell-based. Particulars: read-out: Ratio IC50.
Data set [3] can be described thus: Selectivity index, ratio of IC50 for rat L6 cells to IC50 for chloroquine and pyrimethamine resistant Plasmodium falciparum K1 infected in human erythrocytes. Format: toxicity, cell-based. Particulars: read-out: Ratio IC50.

By IC50 is commonly meant the midpoint of a concentration-inhibition curve.

Regarding `N=C(N)c1ccc2[nH]c(Nc3ccccc3)nc2c1`, the values for the IC50 (in data set [1]; in the data set with Plasmodium falciparum; in the data set on L6) were 54.7 µM, 5.46 µM and 237 µM, respectively. Moreover, the selectivity ratio in data set [2] was 4.3; in data set [3], 43.
Taken in the same sequence, the figures for `Cc1cc2[nH]c(Nc3ccc(C(=N)N)cc3)nc2cc1Cl` were 20.7 µM, 0.795 µM, 23.2 µM, 1.1 and 29.
Taken in the same sequence, the figures for `N=C(N)c1ccc2[nH]c(Nc3ccc(Cl)cc3)nc2c1` were 17 µM, 0.688 µM, 41.6 µM, 2.4 and 60.
In the same order, the values of `N=C(N)c1ccc2[nH]c(Nc3ccc(Cl)c(Cl)c3)nc2c1` are 21.8 µM, 0.138 µM, 39.1 µM, 1.8 and 280.
On to `N=C(N)c1ccc(Nc2nc3cc(C(F)(F)F)ccc3[nH]2)cc1`, for which the IC50 was found to be 20.9 µM in data set [1], 0.853 µM in the data set on Plasmodium falciparum and 41.4 µM in the data set on L6. The selectivity ratio in data set [2] turned out to be 2; in data set [3], 49.
Consider `N=C(N)c1ccc(Nc2nc3cc(C(=N)N)ccc3[nH]2)cc1`, for which the IC50 stood at 0.00466 µM in data set [1], 0.0675 µM in the data set on Plasmodium falciparum and 105 µM in the data set with L6. Moreover, the selectivity ratio in data set [2] is 22600; in data set [3], 1560.
Regarding `CCC(C)NC(=N)c1ccc(Nc2nc3cc(C(=N)NC(C)CC)ccc3[nH]2)cc1` (stereo not given), the IC50 is 0.0455 µM in data set [1], 0.294 µM in the data set with Plasmodium falciparum and 93.6 µM with L6. Besides, the selectivity ratio in data set [2] came to 2060; in data set [3], 320.
Taken in the same sequence, the figures for `CC(C)NC(=N)c1ccc(Nc2nc3cc(C(=N)NC(C)C)ccc3[nH]2)cc1` were 0.027 µM, 0.164 µM, 108 µM, 4000 and 660.
Taken in the same sequence, the figures for `N=C(N)c1ccc(Nc2nc3ccccc3[nH]2)cc1` were 15.8 µM, 3.29 µM, 123 µM, 7.7 and 37.
In the same order, the values of `N=C(N)c1ccc(Nc2nc3cc(Cl)ccc3[nH]2)cc1` are 19.6 µM, 0.877 µM, 46.4 µM, 2.4 and 53.
Consider `N=C(NC1CCCCC1)c1ccc(Nc2nc3cc(C(=N)NC4CCCCC4)ccc3[nH]2)cc1`, for which the IC50 in data set [1] was found to be 0.0051 µM; in the data set with Plasmodium falciparum it was 0.0459 µM; in the data set on L6, 63.7 µM. In addition, the values for the selectivity ratio in data set [2] and in data set [3] were 12500 and 1390, respectively.
Taken in the same sequence, the figures for `CC(C)CNC(=N)c1ccc(Nc2nc3cc(C(=N)NCC(C)C)ccc3[nH]2)cc1` were 0.0095 µM, 0.0913 µM, 84.4 µM, 8880 and 925.
